Patent US20200131558A1, “PAPER-BASED ASSAY FOR ANTIMICROBIAL RESISTANCE” (Colorado State University Research Foundation, priority 2017, published 2020)

Legend:
[1] = system: Chromobacterium violaceum; assay: Antibiotic susceptibility testing (MIC, VITEK 2 microdilution); type: cell-based; conditions: C. violaceum isolate from influent of urban sewage water
Description: To determine antibiotic susceptibility of Chromobacterium violaceum and the 32 E. coli isolates, each isolate was subjected to antibiotic susceptibility testing [VITEK 2™ Biomerieux, USA] using microdilution and photometric determination of growth at the Colorado State University Veterinary Diagnostic Laboratory located in Fort Collins, Colo., US. […] The antibiotics that were tested against C. violaceum included amikacin, amoxicillin-clavulanate, ampicillin, cefazolin, cefpodoxime, ceftazidime, cephalothin, imipenem, ticarcillin, and ticarcillin-clavulanate. Antibiotics tested against each E. coli isolate included amoxicillin, ampicillin, cefalexin, cefovecin, cefpodoxime, ceftiofur, piperacillin, ceftazidime, cefotaxime, and imipenem.

[2] = system: Chromobacterium violaceum; assay: Growth on ampicillin-containing agar plate; type: cell-based; conditions: C. violaceum isolate
[3] = type: physicochemical
[4] = system: C. violaceum's β-lactamase; assay: Paper-based test on intact bacterial isolates; type: cell-based, Chromobacterium violaceum; conditions: intact bacteria, 0.5 mM nitrocefin, 2 hr
Description: Bacterial isolates were obtained from grab samples in the field, except for influent. Field samples include influent, effluent, surface water from a river and sewage samples from city sewers. All samples were plated by pipetting 50-100 μL on various clinical agars [CHROMagar™ Orientation, CHROMagar™ ESBL, and CHROMagar™ KPC]. Bacterial isolates were purified by selecting a single colony with an inoculating loop and spreading the colony on the same kind of agar the colony was selected from, or was spread onto a MacConkey agar plate [Difco]. To remove potential inhibitors before any testing, they were further subcultured onto non selective agar [Tryptic Soy Agar, Thermo Scientific™ Remel™] and then grown in a nutrient broth [Tryptic Soy Broth, Thermo Scientific™ Remel™, Soybean Casein Digest] at 37° C. and 2% CO2. After replenishing the nutrient broth, all bacteria isolates were grown using a shaker for 12-18 hr depending on bacteria growth rate. They were also re-plated on ESBL plates to confirm resistance mechanisms. The isolates were given to the tester blind for accurate, unbiased results. Bacteria were not lysed before reacting 20 μL of bacteria solution with 20 μL of 0.5 mM nitrocefin. Images were obtained after 2 hr of reaction.

β-lactamase = conditions: on paper, ~22° C., 1 U/mL β-lactamase, Lineweaver-Burk plot
Description: Nitrocefin [VWR International], a chromogenic cephalosporin, was used for detection of β-lactamase because of the distinct color change from yellow to red in the presence of the enzyme, making it a user-friendly platform. […] Aliquots of 9.68 mM nitrocefin was frozen at −20° C. in amber microcentrifuge tubes [VWR International]. These tubes were used to minimize degradation from UV exposure. Aliquots were taken out and allowed to thaw and warm to room temperature. Nitrocefin was further diluted with pH 7.4 phosphate buffered saline (PBS) [1.37 M NaCl, 0.027 M of KCl, 0.1 M Na2HPO4, and 0.018 M KH2PO4] to a concentration of 0.5 mM for each experiment (except for nitrocefin concentration optimization where 0.5 mM was selected). During pH optimization experiments, nitrocefin was diluted in pH buffers ranging from pH 6 to pH 9. Recombinant β-lactamase was purchased at a concentration of 1,500 U/mg [Abcam] and was initially dissolved in dH2O and aliquoted and frozen. […]
In order to quantify the concentration of nitrocefin that was hydrolyzed every minute, a calibration curve was generated by quantifying the red product after the reaction had completed, and plotting green light intensity vs. product concentration. […] The calculated Vmax and Km values were carried out in the Michaelis-Menten equation to obtain a theoretical kinetic curve to compare to data points.

SMILES: CC1(C)S[C@@H]2[C@H](NC(=O)[C@H](N)c3ccc(O)cc3)C(=O)N2[C@H]1C(=O)O [amoxicillin]
- resistance/susceptibility of isolate (MIC interpreted per CLSI) [1]: susceptible

SMILES: CC1(C)S[C@@H]2[C@H](NC(=O)[C@H](N)c3ccccc3)C(=O)N2[C@H]1C(=O)O [ampicillin]
- growth on ampicillin-containing agar plate [2]: did not grow

SMILES: Cc1nnc(SCC2=C(C(=O)O)N3C(=O)[C@@H](NC(=O)Cn4cnnn4)[C@H]3SC2)s1 [cefazolin]
- resistance/susceptibility of isolate (MIC interpreted per CLSI) [1]: resistant

SMILES: CC(=O)OCC1=C(C(=O)O)N2C(=O)[C@@H](NC(=O)Cc3cccs3)[C@H]2SC1 [cephalothin]
- resistance/susceptibility of isolate (MIC interpreted per CLSI) [1]: resistant

SMILES: O=C(Cc1cccs1)N[C@@H]1C(=O)N2C(C(=O)O)=C(/C=C/c3ccc([N+](=O)[O-])cc3[N+](=O)[O-])CS[C@H]12 [nitrocefin]
- solubility in water [3]: insoluble in water
- reaction with the isolate's β-lactamase (color change) [4]: did not react
- Km (β-lactamase): 293 ± 13 µM
- Vmax (β-lactamase): 0.0285 ± 0.0012 mM/min

SMILES: CC1(C)S[C@@H]2[C@H](NC(=O)[C@H](C(=O)O)c3ccsc3)C(=O)N2[C@H]1C(=O)O [ticarcillin]
- resistance/susceptibility of isolate (MIC interpreted per CLSI) [1]: susceptible
